Key:
[1] = system: P388 murine leukemia cells; experiment: murine P388 leukemia model, survival; format: in vivo; settings: group 2, IV 50 mg/kg in PEG-PG formulation, 10 mice per group
Protocol: Formulation: The compound of Formula I is first dissolved in 1 volume of 90% propylene glycol (PG). This is followed by the addition of 2 volumes of 45% polyethylene glycol 400 (PEG 400). The volume ratio of PEG 400/PG/water is respectively 30:30:40. Compound is injected in a volume of 10 mL/kg.
DBA/2 female mice (6 weeks of age) were injected intraperitoneally (IP) with 1×10^6 P388 murine leukemia cells (day 0). […]
Mice body weights were recorded twice a week. Lethality and behaviour of animals were recorded every day. […] The results are expressed as percent of mean survival time of treated animals over the mean survival time of the control group (treated vs control, T/C %) and as increase life span (mean survival time of treated animals minus that of control animals over the mean survival time of the control group; ILS %).

[2] = acute toxicity, 24-hour CIV administration in monkeys; format: in vivo
[3] = toxicity of 14-day infusion in rats; format: in vivo; settings: all treated and control groups, attributed to the vehicle
Protocol: (§1) Sprague-Dawley rats received an intravenous continuous infusion over 14 days of Formula I at 25 mg/kg/day, 50 mg/kg/day, or 75 mg/kg/day at a rate of 2 mL/kg/h for 14 consecutive days (same formulation as in Example 7). Blood was collected from the jugular vein in tubes containing K2 EDTA from 3 rats/sex/group at the following time points: 2, 6, and 12 hours after the start of dosing on Day 1, on Day 2 at 6 hours (approximately 30 hours after the start of dosing), on Days 6 and 10 at 6 hours, and on Day 15, 1 hour prior the end of dosing, and then at 5 min, 15 min, 30 min, 1 h, and 2 h after the end of dosing.
The toxicity was due to the vehicle and was attributed to smaller size of infusion vessels, and concurrent catheter tract infection.

[4] = pharmacokinetics of 14-day CIV infusion in rats; format: in vivo, Sprague-Dawley rats; settings: calculated at the end of treatment
Protocol: as §1

[5] = pharmacokinetics of 14-day CIV infusion in monkeys; format: in vivo, Cynomolgus monkeys; settings: for T1/2z: calculated at the end of treatment, mean
Protocol: (§2) Cynomolgus monkeys received continuous IV infusion over 14 days of Formula I at 5 mg/kg/day, 15 mg/kg/day, or 30 mg/kg/day. The drug was infused intravenously (24 hours/day) into the femoral vein at a dose rate of 2 ml/kg/hour for 14 consecutive days. Blood samples were removed from each monkey on Days 1, 2, 6, 10, and 15 of the treatment period. Monkeys were bled by venipuncture and samples were collected into tubes containing K2EDTA. On Day 1, samples were collected at 2, 6, and 12 hours after initiation of treatment. Additional samples were collected at 30 hours after the start of infusion (Day 2). On Days 6 and 10, samples were collected at approximately 6 hours after the bag changes. At the end of the 14 days of infusion, on Day 15, samples were collected at 1 hour prior to cessation of dose administration, and at 5 min, 30 min, 1 h, 2 h, 4 h, 8 h, and 24 h following cessation of dose administration.

[6] = toxicity of 14-day continuous intravenous infusion in monkeys; format: in vivo; settings: 14-day CIV
Protocol: as §2

[7] = maximum tolerated dose and tolerability of bolus administration in mice; format: in vivo
[8] = population pharmacokinetic analysis, mouse (IV); format: in vivo; settings: population PK
Protocol: An analysis was performed to derive allometric equations for Formula I pharmacokinetic parameters using Formula I plasma concentration-time data from three species, including mouse, rat, and monkey, and to estimate human pharmacokinetic parameters from those allometric equations.
Plasma concentrations of Formula I were obtained from mice, rats, and monkeys following intravenous injection or continuous infusion. Formula I pharmacokinetic parameters in mice, rats, and monkeys were estimated using population pharmacokinetic analysis, a function of the software program NONMEM™ (version 5). Typical population pharmacokinetic parameters for Formula I in humans were extrapolated from allometric equations that were derived from pharmacokinetic parameters estimated in the three animal species.
A two-compartment model with a first-order elimination from the central compartment adequately described Formula I plasma concentration-time profiles following intravenous bolus injection (30 mg/kg) in mice and rats, 7-day continuous infusion in rats (50 to 170 mg/kg/day), and 14-day continuous infusion in monkeys (5 to 30 mg/kg/day).

CC(C)=CCC/C(C)=C/CC/C(C)=C/CN1C(=O)c2cccc(O)c2Nc2c(O)cc(O)cc21 [Formula I, 10-farnesyl-4,6,8-trihydroxy-dibenzodiazepin-11-one]
mice died one day after treatment due to formulation toxicity [1]: 3 mice
tolerability ([2]; 35 mg/kg): well tolerated
tolerability ([2]; 70 mg/kg): well tolerated
findings at the site of infusion [3]: necrotization and inflammatory lesions at the site of infusion
T1/2z ([4]; CIV 25 mg/kg/day): 1.6 h
T1/2z ([4]; CIV 50 mg/kg/day): 1.2 h
T1/2z ([4]; CIV 75 mg/kg/day): 1.2 h
fold increase in AUC between groups ([5]; 15 mg/kg/day versus 5 mg/kg/day): 3.4 fold
fold increase in AUC between groups ([5]; 30 mg/kg/day versus 15 mg/kg/day): 4.7 fold
T1/2z ([5]; CIV 5 mg/kg/day): 12 h
T1/2z ([5]; CIV 15 mg/kg/day): 8.3 h
T1/2z ([5]; CIV 30 mg/kg/day): 8.1 h
concentration at 14 days ([5]; cynomolgus monkey, plasma, 14-day IV continuous infusion, read-out: stable plasma concentrations above the therapeutic threshold): > 2000 nM
degenerative changes in organs, including the infusion site [6]: No degenerative changes
effect on body weight, ocular condition, electrocardiographic activity and other parameters [6]: no effect
side effects [6]: inappetance and a moderate degree of regenerative anemia, were reversible
compound associated toxicity ([6]; 5 to 30 mg/kg/day): no severe compound associated toxicity
tolerability finding ([7]; IP bolus dosing): some intestinal occlusion
tolerability finding ([7]; SC bolus dosing): swelling and thickening of the skin
Ke [8]: 8.466 h⁻¹

From US7763604B2, “Methods for administration of a farnesyl dibenzodiazepinone” (Thallion Pharma Ceuticals, Inc., priority 2005, dated 2010)
